Source: patent publication US9056832B2, “Pyridine compounds and the users thereof” (Purdue Pharma L.P., priority 2010, dated 2015)

These compounds were tested against human Nav1.7 (Homo sapiens (Human), UniProt Q15858) (assay: FLIPR or FLIPR TETRA sodium dye assay with KCl and test article pre-incubation). Conditions: read-out: Nav1.7 IC50 (μM) ± SEM.
Type: cell-based

Chain of human Nav1.7 (Q15858 other isoform, or with tags, fused parts or gaps): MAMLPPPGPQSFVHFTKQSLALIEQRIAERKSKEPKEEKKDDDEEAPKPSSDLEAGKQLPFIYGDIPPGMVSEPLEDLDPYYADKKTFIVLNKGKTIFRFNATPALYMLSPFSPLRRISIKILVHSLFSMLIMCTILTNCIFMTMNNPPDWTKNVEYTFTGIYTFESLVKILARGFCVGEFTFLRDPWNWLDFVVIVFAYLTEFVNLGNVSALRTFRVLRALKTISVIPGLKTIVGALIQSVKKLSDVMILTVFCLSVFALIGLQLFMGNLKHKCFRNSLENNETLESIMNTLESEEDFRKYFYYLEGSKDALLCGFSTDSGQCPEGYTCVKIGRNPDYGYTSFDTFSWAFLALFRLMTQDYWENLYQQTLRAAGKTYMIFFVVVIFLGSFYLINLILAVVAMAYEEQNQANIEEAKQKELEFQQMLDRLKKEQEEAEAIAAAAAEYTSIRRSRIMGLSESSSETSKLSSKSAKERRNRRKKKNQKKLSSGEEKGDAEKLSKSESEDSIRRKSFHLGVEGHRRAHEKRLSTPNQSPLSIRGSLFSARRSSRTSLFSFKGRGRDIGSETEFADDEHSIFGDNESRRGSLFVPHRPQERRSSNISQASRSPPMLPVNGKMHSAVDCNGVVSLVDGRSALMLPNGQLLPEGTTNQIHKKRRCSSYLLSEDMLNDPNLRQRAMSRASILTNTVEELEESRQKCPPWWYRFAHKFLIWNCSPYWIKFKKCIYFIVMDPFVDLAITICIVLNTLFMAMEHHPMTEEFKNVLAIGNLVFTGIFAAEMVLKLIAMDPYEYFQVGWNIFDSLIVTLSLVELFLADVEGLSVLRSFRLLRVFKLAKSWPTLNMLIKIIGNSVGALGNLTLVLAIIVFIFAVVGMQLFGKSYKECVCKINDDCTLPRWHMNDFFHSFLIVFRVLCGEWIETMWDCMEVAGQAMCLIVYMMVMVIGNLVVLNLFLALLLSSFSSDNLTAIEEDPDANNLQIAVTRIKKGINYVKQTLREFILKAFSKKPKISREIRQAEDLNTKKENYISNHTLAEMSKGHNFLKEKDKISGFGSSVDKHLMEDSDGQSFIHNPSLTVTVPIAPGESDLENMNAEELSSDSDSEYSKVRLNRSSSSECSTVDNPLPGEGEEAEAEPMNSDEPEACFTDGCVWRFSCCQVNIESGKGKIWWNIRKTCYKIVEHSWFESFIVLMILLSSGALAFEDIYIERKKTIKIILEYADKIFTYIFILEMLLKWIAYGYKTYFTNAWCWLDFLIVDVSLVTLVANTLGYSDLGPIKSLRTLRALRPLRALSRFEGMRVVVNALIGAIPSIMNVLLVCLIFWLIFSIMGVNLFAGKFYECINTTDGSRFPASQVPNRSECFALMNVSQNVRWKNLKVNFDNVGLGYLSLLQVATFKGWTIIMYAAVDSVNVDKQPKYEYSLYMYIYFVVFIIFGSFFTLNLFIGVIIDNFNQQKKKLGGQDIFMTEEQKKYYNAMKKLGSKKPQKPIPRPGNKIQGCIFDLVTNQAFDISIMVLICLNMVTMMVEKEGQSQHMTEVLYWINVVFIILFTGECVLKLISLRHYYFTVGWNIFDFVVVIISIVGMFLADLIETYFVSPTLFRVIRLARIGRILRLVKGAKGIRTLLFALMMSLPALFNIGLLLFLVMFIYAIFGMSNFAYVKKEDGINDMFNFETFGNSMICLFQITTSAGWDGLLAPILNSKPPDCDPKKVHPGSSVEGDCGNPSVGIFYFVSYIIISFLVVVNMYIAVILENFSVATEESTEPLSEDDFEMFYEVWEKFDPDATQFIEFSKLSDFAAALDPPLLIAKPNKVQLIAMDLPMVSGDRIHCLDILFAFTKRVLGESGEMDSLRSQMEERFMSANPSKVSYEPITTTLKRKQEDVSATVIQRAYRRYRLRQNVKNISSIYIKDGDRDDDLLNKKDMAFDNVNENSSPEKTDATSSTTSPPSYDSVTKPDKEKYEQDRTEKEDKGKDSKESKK

| Compound | IC50 |
| --- | --- |
| N#Cc1ccc(Oc2ccc(-c3cc([C@H](O)CO)cc(C(N)=O)n3)cc2)cc1C(F)(F)F [compound 31, (S)-6-(4-(4-cyano-3-(trifluoromethyl)phenoxy)phenyl)-4-(1,2-dihydroxyethyl) picolinamide] | 0.61 ± 0.1 µM |
| NC(=O)c1cc(C2=CCNCC2)cc(-c2ccc(Oc3ccc(F)cc3)cc2)n1 [compound 122, 6-(4-(4-fluorophenoxy)phenyl)-1′,2′,3′,6′-tetrahydro-[4,4'-bipyridine]-2-carboxamide] | 0.14 ± 0.03 µM |
| N#Cc1cc(Oc2ccc(-c3cccc(CNCCN4CCNC4=O)n3)cc2)ccc1C(F)(F)F [compound 70, 5-(4-(6-(((2-(2-oxoimidazolidin-1-yl)ethyl)amino)methyl)pyridin-2-yl)phenoxy)-2-(trifluoromethyl) benzonitrile] | 0.23 ± 0.08 µM |
| NC(=O)c1cc(-c2ccc(-c3ccc(F)cc3)cc2)cc([C@H](O)CO)n1 [compound 160, 6-((S)-1,2-Dihydroxy-ethyl)-4-(4′-fluoro-biphenyl-4-yl)pyridine-2-carboxylic acid amide] | 0.49 ± 0.12 µM |
| NC(=O)c1cc(N2CCC(C(=O)O)CC2)cc(-c2ccc(Oc3ccc(F)cc3)cc2)n1 [compound 59, 1-(2-carbamoyl-6-(4-(4-fluorophenoxy)phenyl)pyridin-4-yl) piperidine-4-carboxylic acid] | 2.28 ± 0.2 µM |
| CS(=O)(=O)c1ccc(Oc2ccc(-c3cccc(CNCCN4CCNC4=O)n3)cc2)cc1 [compound 71, 1-(2-(((6-(4-(4-(methylsulfonyl)phenoxy)phenyl)pyridin-2-yl)methyl)amino)ethyl) imidazolidin-2-one] | 0.35 ± 0.05 µM |
| N#Cc1ccc(Oc2ccc(-c3cccc(C(O)CO)n3)cc2)c(C(F)(F)F)c1 (stereo not drawn) [compound 9, 4-(4-(6-(1,2-dihydroxyethyl)pyridin-2-yl)phenoxy)-3-(trifluoromethyl) benzonitrile] | 0.5 ± 0.18 µM |
| C[C@H](Nc1cc(C(N)=O)nc(-c2ccc(Oc3ccc(F)cc3)cc2)c1)C(N)=O [compound 167, (S)-4-((1-amino-1-oxopropan-2-yl)amino)-6-(4-(4-fluorophenoxy)phenyl) picolinamide] | 0.73 ± 0.1 µM |
| NC(=O)c1cc(NCc2ccncc2)cc(-c2ccc(Oc3ccc(F)cc3)cc2)n1 [compound 46, 6-(4-(4-fluorophenoxy)phenyl)-4-((pyridin-4-ylmethyl)amino) picolinamide] | 0.48 ± 0.07 µM |
| N#Cc1ccc(Oc2ccc(-c3cc([C@@H](O)CO)cc(C(N)=O)n3)cc2)c(C(F)(F)F)c1 [compound 36, (R)-6-(4-(4-cyano-2-(trifluoromethyl)phenoxy)phenyl)-4-(1,2-dihydroxyethyl) picolinamide] | 0.22 ± 0.04 µM |
| N#CCCN(c1ccccc1)c1cc(C(=O)O)nc(-c2ccc(Oc3ccc(F)cc3)cc2)c1 [compound 118, 4-((2-cyanoethyl) (phenyl)amino)-6-(4-(4fluorophenoxy)phenyl)picolinic acid] | 2.5 ± 0.3 µM |
| NC(=O)c1cc(NCCN2CCNC2=O)cc(-c2ccc(Oc3ccc(F)cc3)cc2)n1 [compound 58, 6-(4-(4-fluorophenoxy)phenyl)-4-((2-(2-oxoimidazolidin-1-yl)ethyl)amino) picolinamide] | 1.57 ± 0.33 µM |

Same assay, conditions: recombinant human Nav1.7 in HEK293 cells; CoroNa Green sodium dye; veratridine + scorpion venom; read-out: Nav1.7 IC50 (μM) ± SEM

| Compound | IC50 |
| --- | --- |
| NC(=O)c1cc([C@H](O)CO)cc(-c2ccc(Oc3cc(Cl)ccc3F)cc2)n1 [compound 39, (S)-6-(4-(5-chloro-2-fluorophenoxy)phenyl)-4-(1,2-dihydroxyethyl) picolinamide] | 0.13 ± 0.03 µM |
| NC(=O)c1cc([C@@H](O)CO)cc(-c2ccc(-c3ccc(F)cc3)cc2)n1 [compound 155, 4-((R)-1,2-Dihydroxy-ethyl)-6-(4′-fluoro-biphenyl-4-yl)pyridine-2-carboxylic acid amide] | 2.78 ± 0.61 µM |
| NC(=O)c1cc(NCc2cccnc2)cc(-c2ccc(Oc3ccc(F)cc3)cc2)n1 [compound 45, 6-(4-(4-fluorophenoxy)phenyl)-4-((pyridin-3-ylmethyl)amino) picolinamide] | 0.15 ± 0.01 µM |
| NC(=O)c1cc([C@H](O)CO)cc(-c2ccc(Oc3ccc(Cl)cc3F)cc2)n1 [compound 140, (S)-6-(4-(4-chloro-2-fluorophenoxy)phenyl)-4-(1,2-dihydroxyethyl) picolinamide] | 0.07 ± 0.01 µM |
| N#Cc1cccc2c1ccn2-c1cc(C(N)=O)nc(-c2ccc(Oc3ccc(F)cc3)cc2)c1 [compound 99, 4-(4-cyano-1H-indol-1-yl)-6-(4-(4-fluorophenoxy)phenyl) picolinamide] | 0.1 ± 0.03 µM |
| NC(=O)c1cc(NCCCn2ccnc2)cc(-c2ccc(Oc3ccc(F)cc3)cc2)n1 [compound 54, 4-((3-(1H-imidazol-1-yl)propyl)amino)-6-(4-(4-fluorophenoxy)phenyl) picolinamide] | 0.22 ± 0.06 µM |
| C[C@H](Nc1cc(C#N)cc(-c2ccc(Oc3ccc(F)cc3)cc2)n1)C(N)=O [compound 166, (S)-2-((4-cyano-6-(4-(4-fluorophenoxy)phenyl)pyridin-2-yl)amino)propanamide] | 4.32 ± 1 µM |
| O=C1NCCN1CCNCc1cccc(-c2ccc(Oc3ccc(F)cc3)cc2)n1 [compound 62, 1-(2-(((6-(4-(4-fluorophenoxy)phenyl)pyridin-2-yl)methyl)amino)ethyl)imidazolidin-2-one] | 0.07 ± 0.02 µM |
| N#Cc1cc([C@H](O)CO)cc(-c2ccc(Oc3ccc(F)cc3)cc2)n1 [compound 112, (S)-4-(1,2-dihydroxyethyl)-6-(4-(4-fluorophenoxy)phenyl)picolinonitrile] | 2.12 ± 0.54 µM |
| CN(c1ccccc1)c1cc(-c2ccc(Oc3ccc(F)cc3)cc2)cc(C(=O)O)n1 [compound 119, 4-(4-(4-fluorophenoxy)phenyl)-6-(methyl (phenyl)amino) picolinic acid] | 2.46 ± 0.8 µM |
| N#Cc1cc(CNCCN2CCNC2=O)cc(-c2ccc(Oc3ccc(F)cc3)cc2)n1 [compound 106, 6-(4-(4-fluorophenoxy)phenyl)-4-(((2-(2-oxoimidazolidin-1-yl)ethyl)amino)methyl) picolinonitrile] | 2.01 ± 0.44 µM |
| C[C@H](Nc1cc(C#N)nc(-c2ccc(Oc3ccc(F)cc3)cc2)c1)C(N)=O [compound 165, (S)-2-((2-cyano-6-(4-(4-fluorophenoxy)phenyl)pyridin-4-yl)amino)propanamide] | 1.97 ± 0.49 µM |
| O=C(O)c1cc(-c2ccc(Oc3ccc(F)cc3)cc2)cc(N(CCc2nn[nH]n2)c2ccccc2)n1 [compound 153, 4-[4-(4-Fluoro-phenoxy)-phenyl]-6-{phenyl-[2-(2H-tetrazol-5-yl)ethyl]-amino}-pyridine-2-carboxylic acid] | 2.13 ± 0.55 µM |
| N#Cc1cc(N2CCN(C(=N)N)CC2)cc(-c2ccc(Oc3ccc(F)cc3)cc2)n1 [compound 83, 4-(2-cyano-6-(4-(4-fluorophenoxy)phenyl)pyridin-4-yl) piperazine-1-carboximidamide] | 1.95 ± 0.52 µM |
| NC(=O)c1cc(N2CCN(c3ncccn3)CC2)cc(-c2ccc(Oc3ccc(F)cc3)cc2)n1 [compound 74, 6-(4-(4-fluorophenoxy)phenyl)-4-(4-(pyrimidin-2-yl)piperazin-1-yl) picolinamide] | 0.09 ± 0.01 µM |
| CN(c1ccc(C(=O)O)cc1)c1cc(C(N)=O)nc(-c2ccc(Oc3ccc(F)cc3)cc2)c1 [compound 91, 4-((2-carbamoyl-6-(4-(4-fluorophenoxy)phenyl)pyridin-4-yl)(methyl)amino)benzoic acid] | > 20 µM |
| NC(=O)c1cc(-c2ccc(Oc3ccc(F)cc3)cc2)cc(N(CC(=O)O)c2ccccc2)n1 [compound 143, ({6-Carbamoyl-4-[4-(4-fluoro-phenoxy)-phenyl]-pyridin-2-yl}phenyl-amino)-acetic acid] | > 20 µM |
| NC(=O)c1cc(-c2ccc(Oc3ccc(F)cc3)cc2)cc([C@H](O)CO)n1 [compound 95, (S)-6-(1,2-dihydroxyethyl)-4-(4-(4-fluorophenoxy)phenyl)picolinamide] | 0.17 ± 0.08 µM |
| NC(=O)c1cc([C@@H](O)CO)cc(-c2ccc(Oc3ccc(C(F)(F)F)cn3)cc2)n1 [compound 132, (R)-4-(1,2-dihydroxyethyl)-6-(4-((5-(trifluoromethyl)pyridin-2-yl)oxy)phenyl)picolinamide] | 2.78 ± 0.75 µM |
| NC(=O)c1cc(-c2ccc(Oc3ccc(OC(F)(F)F)cc3)cc2)cc([C@H](O)CO)n1 [compound 156, 6-((S)-1,2-Dihydroxy-ethyl)-4-[4-(4-trifluoromethoxy-phenoxy)phenyl]-pyridine-2-carboxylic acid amide] | 0.13 ± 0.02 µM |
| N#Cc1ccc(Oc2ccc(-c3cccc(CNCCN4CCNC4=O)n3)cc2)cc1 [compound 67, 4-(4-(6-(((2-(2-oxoimidazolidin-1-yl)ethyl)amino)methyl)pyridin-2-yl)phenoxy)benzonitrile] | 0.17 ± 0.01 µM |
| NC(=O)c1cc([C@H](O)CO)cc(-c2ccc(Oc3ccc(F)cc3)cc2)n1 [compound 41, (S)-4-(1,2-dihydroxyethyl)-6-(4-(4-fluorophenoxy)phenyl)picolinamide] | 0.24 ± 0.04 µM |
| CN(c1ccccc1)c1cc(C(N)=O)nc(-c2ccc(Oc3ccc(C(F)(F)F)cc3)cc2)c1 [compound 149, 4-(Methyl-phenyl-amino)-6-[4-(4-trifluoromethyl-phenoxy)phenyl]-pyridine-2-carboxylic acid amide] | 10 to 20 µM |
| NC(=O)c1cc(-c2ccc(Oc3ccc(F)cc3)cc2)cc([C@@H](O)CO)n1 [compound 96, (R)-6-(1,2-dihydroxyethyl)-4-(4-(4-fluorophenoxy)phenyl)picolinamide] | 0.12 ± 0.03 µM |
| NC(=O)c1ccc(Oc2ccc(-c3cc([C@H](O)CO)cc(C(N)=O)n3)cc2)c(C(F)(F)F)c1 [compound 32, (S)-6-(4-(4-carbamoyl-2-(trifluoromethyl)phenoxy)phenyl)-4-(1,2-dihydroxyethyl) picolinamide] | > 20 µM |
| NC(=O)c1cc(CN2CCNCC2)cc(-c2ccc(Oc3ccc(F)cc3)cc2)n1 [compound 51, 6-(4-(4-fluorophenoxy)phenyl)-4-(piperazin-1-ylmethyl)picolinamide] | 0.18 ± 0.3 µM |
| NC(=O)CN(c1ccccc1)c1cc(-c2ccc(Oc3ccc(F)cc3)cc2)cc(C(N)=O)n1 [compound 98, 6-((2-amino-2-oxoethyl)(phenyl)amino)-4-(4-(4-fluorophenoxy)phenyl)picolinamide] | 0.22 ± 0.07 µM |
